We go through three compounds from patent publication US5162339A, “Quinuclidine therapeutic agents” (Pfizer Inc., priority 1990, dated 1992).

Experiment [1] deals with substance P-induced locomotion. Briefly: suppression of substance P-induced hypermotility (locomotion) in rats. Type of experiment: in vivo, rat. The settings on record: 32 mg./kg. dose level, intraperitoneal route. An excerpt:
(§1) Such conditions include gastrointestinal disorders such as ulcer and colitis and other like diseases of the gastrointestinal tract, central nervous system disorders such as anxiety and psychosis, inflammatory diseases such as rheumatoid arthritis and inflammatory bowel diseases, respiratory diseases such as asthma, as well as pain in any of the aforesaid conditions, including migraine. […] A. Winter et al., Proceedings of the Society of Experimental Biology and Medicine, Vol. 111, p.
The anti-psychotic activity of the compounds of the present invention as neuroleptic agents for the control of various psychotic disorders is determined primarily by a study of their ability to suppress substance P-induced hypermotility in rats. This study is carried out by first dosing the rats with a control compound or with an appropriate test compound of the present invention, then injecting the rats with substance P by intracerebral administration via canula and thereafter measuring their individual locomotor response to said stimuli.

Experiment [2] concerns carrageenin-induced rat foot edema. Kind of experiment: carrageenin-induced rat foot edema test. Type of experiment: in vivo. The settings on record: for % Inhibition at 32 mg./kg. (inhibition of edema formation): rats, 32 mg./kg. orally (by gavage), compared to vehicle control.
Text: as §1
In this test, anti-inflammatory activity is determined as the percent inhibition of edema formation in the hind par of male albino rats (weighing 150-190 g.) in response to a sub-plantar injection of carrageenin. The carrageenin is injected as a 1% aqueous solution. Edema formation is then assessed by measuring the volume of the injected paw initially as well as three hours after the carrageenin injection. The increase in volume three hours after carrageenin injection constitutes the individual response. Compounds are considered active if the difference in response between the drug-treated animals (six rats/group) and a control group receiving the vehicle alone is significant on comparison with the results afforded by a standard compound like phenylbutazone at 33 mg./kg., via the oral route of administration.
The following cis-[(cyclic)methylamino]-2-benzhydrylquinuclidine final products of Examples 2, 3 and 4, respectively, were tested for anti-inflammatory activity in rats, using the standard rat foot edema test, according to the general procedure described by C. A. Winter et al., as first reported in the Proceedings of the Society for Experimental Biology and Medicine, Vol. 111, p. 544 (1962).
On the technique in general: Carrageenan injected into the paw causes an acute inflammation.

The term % Inhibition denotes the share of the control response that was lost under treatment. A higher % Inhibition goes with a strong effect. With `Clc1ccccc1CN[C@H]1C2CCN(CC2)[C@H]1C(c1ccccc1)c1ccccc1` (relative stereo) [Example 2, cis-3-[(2-chlorophenyl)methylamino]-2-benzhydrylquinuclidine], the “inhibition of substance P-induced locomotion” value in experiment [1] amounted to 50%. Further, the inhibition in swelling in experiment [2] (rat, 100 mg./kg. dose level, oral route) was 50%. In experiment [2], the “% Inhibition at 32 mg./kg. (inhibition of edema formation)” value (from here on “% Inhibition”) was determined as 29%.
As for `FC(F)(F)c1ccccc1CN[C@H]1C2CCN(CC2)[C@H]1C(c1ccccc1)c1ccccc1` (relative stereo) [Example 3, cis-3-[(2-trifluorophenyl)methylamino]-2-benzhydrylquinuclidine], in experiment [2], the “% Inhibition” value worked out at 50%.
As to `COc1ccccc1CN[C@H]1C2CCN(CC2)[C@H]1C(c1ccccc1)c1ccccc1` (relative stereo) [Example 4, cis-3-[(2-methoxyphenyl)methylamino]-2-benzhydrylquinuclidine], the “% Inhibition” value in experiment [2] came out at 38%.
